Molecular target: T1, AsPC-1 HiBiT-KRASG12D (Homo sapiens, UniProt P01116, G12D)
T1 construct: insert the HiBiT tag onto the N-terminus of one or more of the endogenous KRAS alleles; endogenous in cells; host or cells: AsPC-1 (ATCC CRL-1682), CRISPR-Cas9 knock-in clone, one tagged allele
Assay: HiBiT degradation assay (G12D), AsPC-1 HiBiT-KRASG12D cells
Assay type: cell-based
Settings: 24 hours treatment; for Dmax: ASPC1, AsPC-1 HiBiT-KRASG12D cells; for Dmax / AsPC-1 HiBiT-KRASG12D DMax: maximum degradation observed; for DC50 / AsPC-1 HiBiT-KRASG12D DMax: AsPC-1 HiBiT-KRASG12D cells; for DC50: HiBiT luminescence
How it was run: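 AsPC-1 cells (homozygous G12D) carrying a CRISPR knock-in N-terminal HiBiT tag on endogenous KRAS were treated with compounds for 24 hours at 37° C, 5% CO2, in triplicate. Alamar blue viability was read first, then cells were washed and lysed with Nano-Glo HiBiT reagent for 45 minutes before luminescence reading.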

T1 sequence (P01116 1-188 isoform P01116-2 G12D): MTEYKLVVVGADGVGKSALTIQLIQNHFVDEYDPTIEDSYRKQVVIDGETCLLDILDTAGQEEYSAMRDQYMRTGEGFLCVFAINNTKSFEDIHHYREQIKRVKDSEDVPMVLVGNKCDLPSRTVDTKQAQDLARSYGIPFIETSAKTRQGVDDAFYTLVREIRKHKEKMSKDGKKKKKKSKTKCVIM

CCc1cccc2cc(O)cc(-c3cc4nc(OC[C@]56CCCN5[C@H](COC(=O)N5CCN(c7cc(C(C(=O)N8C[C@H](O)C[C@H]8C(=O)N[C@@H](C)c8ccc(-c9scnc9C)cc8)C(C)C)on7)CC5)CC6)nc(N5CC6CCC(C5)N6)c4cn3)c12 (single isomer, unassigned) [Compound 266]
Dmax: 80 to 100% | DC50: < 600 nM

CCc1cccc2cc(O)cc(-c3ccc4c(N5CC6CCC(C5)N6)nc(OC[C@]56CCCN5[C@H](COC(=O)N5CCN(c7cc(C(C(=O)N8C[C@H](O)C[C@H]8C(=O)N[C@@H](C)c8ccc(-c9scnc9C)cc8)C(C)C)on7)CC5)CC6)nc4c3F)c12 (single isomer, unassigned) [Compound 267]
Dmax: 80 to 100% | DC50: < 600 nM

C#Cc1c(F)ccc2cccc(-c3ncc4c(N5CC6CCC(C5)N6)nc(OC[C@]56CCCN5[C@H](COC(=O)N5CCN(c7cc(C(C(=O)N8C[C@H](O)C[C@H]8C(=O)N[C@@H](C)c8ccc(-c9scnc9C)cc8)C(C)C)on7)CC5)CC6)nc4c3F)c12 (single isomer, unassigned) [Compound 270, [(3S,7aR)-7a-{[(4-{3,8-diazabicyclo[3.2.1]octan-3-yl}-7-(8-ethynyl-7-fluoronaphthalen-1-yl)-8-fluoropyrido[4,3-d]pyrimidin-2-yl)oxy]methyl}-hexahydro-1H-pyrrolizin-3-yl]methyl 4-{5-[(2R*)-1-[(2S,4R)-4-hydroxy-2-{[(1S)-1-[4-(4-methyl-1,3-thiazol-5-yl)phenyl]ethyl]carbamoyl}pyrrolidin-1-yl]-3-methyl-1-oxobutan-2-yl]-1,2-oxazol-3-yl}piperazine-1-carboxylate]
Dmax: 80 to 100% | DC50: < 600 nM

CCc1cccc2cc(O)cc(-c3ncc4c(N5CC6CCC(C5)N6)nc(OCCN5CCC(C6CN(c7cc([C@H](C(=O)N8C[C@H](O)C[C@H]8C(=O)N[C@@H](C)c8ccc(-c9scnc9C)cc8)C(C)C)on7)C6)CC5)nc4c3F)c12 (single isomer, unassigned) [Compound 275]
Dmax: 80 to 100% | DC50: < 600 nM

CCc1cccc2cc(O)cc(-c3ncc4c(N5CC6CCC(C5)N6)nc(OCCN5CCC(C6CN(c7cc([C@@H](C(=O)N8C[C@H](O)C[C@H]8C(=O)N[C@@H](C)c8ccc(-c9scnc9C)cc8)C(C)C)on7)C6)CC5)nc4c3F)c12 (single isomer, unassigned) [Compound 277]
Dmax: 20 to 60% | DC50: 1000 to 3000 nM

C#Cc1c(F)ccc2cc(O)cc(-c3ncc4c(N5CC6CCC(C5)N6)nc(OCCN5CCC(CC6CN(c7cc([C@H](C(=O)N8C[C@H](O)C[C@H]8C(=O)N[C@@H](C)c8ccc(-c9scnc9C)cc8)C(C)C)on7)C6)CC5)nc4c3F)c12 (single isomer, unassigned) [Compound 288]
Dmax: 80 to 100% | DC50: < 600 nM

C#Cc1c(F)ccc2cc(O)cc(-c3ncc4c(N5CC6CCC(C5)N6)nc(OCCN5CCC(CC6CCN(c7cc([C@@H](C(=O)N8C[C@H](O)C[C@H]8C(=O)N[C@@H](C)c8ccc(-c9scnc9C)cc8)C(C)C)on7)CC6)CC5)nc4c3F)c12 (single isomer, unassigned) [Compound 308]
Dmax: 60 to 80% | DC50: < 600 nM

CCc1cccc2cc(O)cc(-c3ncc4c(N5CC6CCC(C5)N6)nc(OCCN5CCC(CC6CCN(c7cc(C(C(=O)N8C[C@H](O)C[C@H]8C(=O)N[C@@H](C)c8ccc(-c9scnc9C)cc8)C(C)C)on7)CC6)CC5)nc4c3F)c12 (single isomer, unassigned) [Compound 320]
DC50: < 600 nM | AsPC-1 HiBiT-KRASG12D DMax: A (80% < A ≤ 100%)

CCc1cccc2cc(O)cc(-c3ncc4c(N5CC6CCC(C5)N6)nc(OCCN5CCC(CC6CCN(c7cc(C(C(=O)N8C[C@H](O)C[C@H]8C(=O)N[C@@H](C)c8ccc(-c9scnc9C)cc8)C(C)C)on7)CC6)CC5)nc4c3F)c12 (single isomer, unassigned) [Compound 321]
DC50: 600 to 1000 nM | AsPC-1 HiBiT-KRASG12D DMax: C (20% <C ≤ 60%)

Cc1ncsc1-c1ccc([C@H](C)NC(=O)[C@@H]2C[C@@H](O)CN2C(=O)[C@@H](c2cc(N3CCN(C(=O)OC[C@H]4CC[C@@]5(COc6nc(N7CC8CCC(C7)N8)c7cc(Cl)c(-c8cc(O)cc9ccccc89)c(F)c7n6)CCCN45)CC3)no2)C(C)C)cc1 (single isomer, unassigned) [Compound 329]
Dmax: 80 to 100% | DC50: < 600 nM

C#Cc1c(F)ccc2cccc(-c3ncc4c(N5CC6CCC(C5)N6)nc(OC[C@]56CCCN5[C@@H](COC(=O)N5CCN(c7cc([C@H](C(=O)N8C[C@H](O)C[C@H]8C(=O)N[C@@H](C)c8ccc(-c9scnc9C)cc8)C(C)C)on7)CC5)CC6)nc4c3F)c12 (single isomer, unassigned) [Compound 333]
Dmax: 80 to 100% | DC50: < 600 nM

CCc1cccc2cc(O)cc(-c3ncc4c(N5CCCCCC5)nc(OC[C@@]56CCCN5[C@H](COc5cc([C@H](C(=O)N7C[C@H](O)C[C@H]7C(=O)N[C@@H](C)c7ccc(-c8scnc8C)cc7)C(C)C)on5)CC6)nc4c3F)c12 (single isomer, unassigned) [Compound 338]
Dmax: 80 to 100% | DC50: < 600 nM

CCc1cccc2cc(O)cc(-c3ncc4c(N5CCCCCC5)nc(OC[C@@]56CCCN5[C@H](COc5cc([C@@H](C(=O)N7C[C@H](O)C[C@H]7C(=O)N[C@@H](C)c7ccc(-c8scnc8C)cc7)C(C)C)on5)CC6)nc4c3F)c12 (single isomer, unassigned) [Compound 339]
DC50: > 3000 nM

CCc1cccc2cc(O)cc(-c3ncc4c(N5CC6CCC(C5)N6)nc(OC[C@@]56CCCN5[C@H](COC(=O)N5CCN(c7cc([C@H](C(=O)N8C[C@H](O)C[C@H]8C(=O)N[C@@H](C)c8ccc(-c9scnc9C)cc8)C(C)C)on7)CC5)CC6)nc4c3F)c12 (stereo in doubt) [Compound 7]
DC50: < 600 nM

CCc1cccc2cc(O)cc(-c3ncc4c(N5CC6CCC(C5)N6)nc(OC[C@@]56CCCN5[C@H](COC(=O)N5C[C@@H](C)N(c7cc([C@H](C(=O)N8C[C@H](O)C[C@H]8C(=O)N[C@@H](C)c8ccc(-c9scnc9C)cc8)C(C)C)on7)C[C@@H]5C)CC6)nc4c3F)c12 (stereo in doubt) [Compound 299, [(3S,8R)-8-[[4-(3,8-diazabicyclo[3.2.1]octan-3-yl)-7-(8-ethyl-3-hydroxy-1-naphthyl)-8-fluoro-pyrido[4,3-d]pyrimidin-2-yl]oxymethyl]-1,2,3,5,6,7-hexahydropyrrolizin-3-yl]methyl (2S,5R)-4-[5-[(1R)-1-[(2S,4R)-4-hydroxy-2-[[(1S)-1-[4-(4-methylthiazol-5-yl)phenyl]ethyl]carbamoyl]pyrrolidine-1-carbonyl]-2-methyl-propyl]isoxazol-3-yl]-2,5-dimethyl-piperazine-1-carboxylate]
Dmax: 80 to 100% | DC50: < 600 nM

Cc1ncsc1-c1ccc([C@H](C)NC(=O)[C@@H]2C[C@@H](O)CN2C(=O)[C@@H](c2cc(OCC3CCN(CCOc4nc(N5CC6CCC(C5)N6)c5cnc(-c6cc(O)cc(Cl)c6C(F)(F)F)c(F)c5n4)CC3)no2)C(C)C)cc1 [Compound 24, (2S,4R)-1-[(2R)-2-[3-({1-[2-({7-[3-chloro-5-hydroxy-2-(trifluoromethyl)phenyl]-4-{3,8-diazabicyclo[3.2.1]octan-3-yl}-8-fluoropyrido[4,3-d]pyrimidin-2-yl}oxy)ethyl]piperidin-4-yl}methoxy)-1,2-oxazol-5-yl]-3-methylbutanoyl]-4-hydroxy-N-[(1S)-1-[4-(4-methyl-1,3-thiazol-5-yl)phenyl]ethyl]pyrrolidine-2-carboxamide]
Dmax: 80 to 100% | DC50: < 600 nM

CCc1cccc2cc(O)cc(-c3ncc4c(N5CC6CCC(C5)N6)nc(O[C@H](C)CN5CCC6(CC5)CN(c5cc([C@H](C(=O)N7C[C@H](O)C[C@H]7C(=O)N[C@@H](C)c7ccc(-c8scnc8C)cc7)C(C)C)on5)C6)nc4c3F)c12 [Compound 25, (2S,4R)-1-[(2R)-2-(3-{7-[(2R)-2-[(4-{3,8-diazabicyclo[3.2.1]octan-3-yl}-7-(8-ethyl-3-hydroxynaphthalen-1-yl)-8-fluoropyrido[4,3-d]pyrimidin-2-yl)oxy]propyl]-2,7-diazaspiro[3.5]nonan-2-yl}-1,2-oxazol-5-yl)-3-methylbutanoyl]-4-hydroxy-N-[(1S)-1-[4-(4-methyl-1,3-thiazol-5-yl)phenyl]ethyl]pyrrolidine-2-carboxamide]
Dmax: 20 to 60% | DC50: 600 to 1000 nM

CCc1cccc2cc(O)cc(-c3ncc4c(N5CC6CCC(C5)N6)nc(OC[C@]56CCCN5[C@@H](COc5cc([C@H](C(=O)N7C[C@H](O)C[C@H]7C(=O)N[C@@H](C)c7ccc(-c8scnc8C)cc7)C(C)C)on5)CC6)nc4c3F)c12 [Compound 27, (2S,4R)-1-[(2R)-2-(3-{[(3R,7aR)-7a-{[(4-{3,8-diazabicyclo[3.2.1]octan-3-yl}-7-(8-ethyl-3-hydroxynaphthalen-1-yl)-8-fluoropyrido[4,3-d]pyrimidin-2-yl)oxy]methyl}-hexahydro-1H-pyrrolizin-3-yl]methoxy}-1,2-oxazol-5-yl)-3-methylbutanoyl]-4-hydroxy-N-[(1S)-1-[4-(4-methyl-1,3-thiazol-5-yl)phenyl]ethyl]pyrrolidine-2-carboxamide]
DC50: < 600 nM

CCc1cccc2cc(O)cc(-c3ncc4c(N5CC6CCC(C5)N6)nc(OC[C@]56CCCN5[C@@H](COc5cc([C@@H](C(=O)N7C[C@H](O)C[C@H]7C(=O)N[C@@H](C)c7ccc(-c8scnc8C)cc7)C(C)C)on5)CC6)nc4c3F)c12 [Compound 28, (2S,4R)-1-[(2S)-2-(3-{[(3R,7aR)-7a-{[(4-{3,8-diazabicyclo[3.2.1]octan-3-yl}-7-(8-ethyl-3-hydroxynaphthalen-1-yl)-8-fluoropyrido[4,3-d]pyrimidin-2-yl)oxy]methyl}-hexahydro-1H-pyrrolizin-3-yl]methoxy}-1,2-oxazol-5-yl)-3-methylbutanoyl]-4-hydroxy-N-[(1S)-1-[4-(4-methyl-1,3-thiazol-5-yl)phenyl]ethyl]pyrrolidine-2-carboxamide]
DC50: > 3000 nM
